Where a name gives a salt, the structure may show the parent alone. Read-outs that look alike come from different tables or passages of the source.
Assays:
[1] = target: T1, α1B Human Adrenergic Receptor (Homo sapiens, UniProt P35368); test: Radioligand binding, [3H]prazosin, cloned human α1B adrenergic receptor; details: for Ki: read-out: pKi alpha-1 1b (converted)
T1 construct: The entire coding region of α1B (1563 bp); expressed in transfected cells
T1 sequence (P35368 1-520): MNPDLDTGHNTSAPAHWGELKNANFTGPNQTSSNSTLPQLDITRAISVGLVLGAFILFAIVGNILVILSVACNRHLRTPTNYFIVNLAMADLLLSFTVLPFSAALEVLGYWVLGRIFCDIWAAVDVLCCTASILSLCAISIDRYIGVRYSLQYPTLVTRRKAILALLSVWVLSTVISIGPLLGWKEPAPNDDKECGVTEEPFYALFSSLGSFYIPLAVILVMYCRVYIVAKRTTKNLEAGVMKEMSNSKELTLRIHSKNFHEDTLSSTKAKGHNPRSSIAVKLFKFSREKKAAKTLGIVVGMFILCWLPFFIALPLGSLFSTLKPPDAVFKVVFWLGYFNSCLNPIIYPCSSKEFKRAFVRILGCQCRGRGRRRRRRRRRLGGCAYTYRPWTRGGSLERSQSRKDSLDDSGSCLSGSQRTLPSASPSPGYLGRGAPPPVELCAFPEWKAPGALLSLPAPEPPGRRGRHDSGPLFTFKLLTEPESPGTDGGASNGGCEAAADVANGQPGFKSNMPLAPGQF
Procedure, shortened: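 Membranes from stably transfected LM(tk−) cells, resuspended in 50 mM Tris-HCl, 1 mM MgCl2, 0.1% ascorbic acid, pH 7.5, were incubated with 0.5 nM [3H]prazosin for 20 min at 37° C. Nonspecific binding defined with 10 μM phentolamine; bound ligand separated by GF/B filtration.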

α2B receptor = target: T2, α2B receptor (Homo sapiens, UniProt P18089); test: Competition binding, [3H]rauwolscine, human α2B receptor; details: for Ki: read-out: pKi alpha-2 2b (converted)
T2 construct: host or cells: LM(tk-) cells, line L-NGC-α2B
T2 sequence (P18089 1-450): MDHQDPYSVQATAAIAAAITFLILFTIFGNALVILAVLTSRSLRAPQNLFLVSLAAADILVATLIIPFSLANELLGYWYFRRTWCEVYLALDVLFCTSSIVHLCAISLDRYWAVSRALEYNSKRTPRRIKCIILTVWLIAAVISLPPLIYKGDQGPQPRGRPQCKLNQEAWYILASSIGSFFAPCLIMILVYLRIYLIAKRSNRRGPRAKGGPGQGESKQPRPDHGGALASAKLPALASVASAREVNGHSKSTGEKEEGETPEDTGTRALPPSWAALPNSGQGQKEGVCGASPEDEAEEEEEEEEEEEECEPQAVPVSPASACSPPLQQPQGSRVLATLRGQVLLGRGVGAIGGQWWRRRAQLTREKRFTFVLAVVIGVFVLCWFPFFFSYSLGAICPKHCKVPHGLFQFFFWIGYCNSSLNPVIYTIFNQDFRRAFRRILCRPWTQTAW
Text: The protocols for these experiments are given below.
α2 Human Adrenergic Receptors:
To determine the potency of […], antagonists at the α2 receptors, LM(tk−) cell lines stably transfected with the genes encoding the α2A, α2B, and α2C receptors were used. The cell line expressing the α2A receptor is designated L-α2A, and was deposited on Nov. […] The cell line expressing the α2B receptor is designated L-NGC-α2B, and was deposited on Oct. […] The cell line expressing the α2C receptor is designated L-α2C, and was deposited on Nov. […] Cell lysates were prepared as described above (see Radioligand Binding Assays), and suspended in 25 mM glycylglycine buffer (pH 7.6 at room temperature). Equilibrium competition binding assay were performed using [3H]rauwolscine (0.5 nM), and nonspecific binding was determined by incubation with 10 μM phentolamine. The bound radioligand was separated by filtration through GF/B filters using a cell harvester.

[2] = target: T3, α1A Human Adrenergic Receptor (Homo sapiens, UniProt P25100); test: Radioligand binding, [3H]prazosin, cloned human α1A adrenergic receptor; details: for Ki: read-out: pKi alpha-1 1a (converted)
T3 construct: The entire coding region of α1A (1719 bp); expressed in transfected cells
T3 sequence (P25100 1-572): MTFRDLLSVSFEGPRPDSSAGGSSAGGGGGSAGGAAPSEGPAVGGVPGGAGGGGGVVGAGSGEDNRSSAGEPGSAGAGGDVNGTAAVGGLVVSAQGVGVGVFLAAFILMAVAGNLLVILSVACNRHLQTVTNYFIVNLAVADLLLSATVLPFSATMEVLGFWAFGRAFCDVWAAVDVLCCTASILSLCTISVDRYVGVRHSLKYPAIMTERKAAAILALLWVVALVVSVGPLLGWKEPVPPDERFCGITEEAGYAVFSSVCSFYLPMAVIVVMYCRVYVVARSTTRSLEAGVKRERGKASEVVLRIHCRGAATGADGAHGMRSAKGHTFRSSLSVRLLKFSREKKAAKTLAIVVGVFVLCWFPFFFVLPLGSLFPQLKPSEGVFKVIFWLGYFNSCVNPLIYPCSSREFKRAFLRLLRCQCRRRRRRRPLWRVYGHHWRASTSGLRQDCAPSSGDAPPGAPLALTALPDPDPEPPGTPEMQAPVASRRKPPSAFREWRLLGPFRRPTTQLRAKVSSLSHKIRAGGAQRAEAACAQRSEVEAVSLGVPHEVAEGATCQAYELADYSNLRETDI
Procedure, shortened: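 Transfected LM(tk−) cells are lysed by sonication and membranes collected at 30,000× g. Membranes then bind 0.5 nM [3H]prazosin for 20 min at 37° C, and the reaction is stopped by filtration over GF/B filters, with 10 μM phentolamine giving nonspecific binding.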

[3] = cloned human receptor in LM(tk-) cell membranes, SEM and n in lines below
[4] = [3H]rauwolscine, LM(tk-) cell line L-NGC-α2B, SEM and n in lines below
[5] = [3H]prazosin, cloned human receptor in LM(tk-) cell membranes, SEM and n in lines below

Molecule | Ki [1, 3] | Ki (α2B receptor; [4]) | Ki [2, 5] | further results
5-Acetyl-1,4-dihydro-2,6-dimethyl-4-(4-nitrophenyl)-3-[3-(4,4-diphenylpiperidin-1-yl)propoxy]carbonylpyridine hydrochloride hemihydrate [Example 49] | – | – | – | pKi alpha-1 1b [1, 3]: 6.72; pKi alpha-2 2b (α2B receptor): 6.42; pKi alpha-1 1a [2]: 6.94
CNC(=O)C1=C(C)NC(C)=C(C(=O)NCCCN2CCC(c3ccccc3)(c3ccccc3)CC2)C1c1ccc([N+](=O)[O-])cc1 (racemic) [(±)-119, 1,4-Dihydro-2,6-dimethyl-5-(N-Methyl) carboxamido-4-(4-nitrophenyl)-3-{N-[3-(4,4-diphenylpiperidin-1-yl)propyl]}carboxamidopyridine] | – | – | – | pKi alpha-1 1b ([1]; cloned human α1B receptor, LM(tk−) cell membranes): 6.38; pKi alpha-2 2b (α2B receptor): 6.04; pKi alpha-1 1a [2]: 6.21
CNC(=O)C1=C(C)NC(C)=C(C(=O)NCCCN2CCC(c3ccccc3)(c3ccccc3)CC2)C1c1ccc([N+](=O)[O-])cc1 (stereo not drawn) [Example 38, 1,4-Dihydro-2,6-dimethyl-5-(N-methyl)carboxamido-4-(4-nitrophenyl)-3-{N-[3-(4,4-diphenylpiperidin-1-yl)propyl]}carboxamidopyridine] | – | – | – | pKi alpha-1 1b [1, 3]: 6.38; pKi alpha-2 2b (α2B receptor): 6.04; pKi alpha-1 1a [2]: 6.21
CC1=C(C(=O)NCCCN2CCC(c3ccccc3)(c3ccccc3)CC2)C(c2ccc([N+](=O)[O-])cc2)C(C(=O)N(C)C)=C(C)N1 (stereo not drawn) [Example 39, 1,4-Dihydro-2,6-dimethyl-3-(N,N-dimethyl) carboxamido-4-(4-nitrophenyl)-5-{N-[3-(4,4-diphenylpiperidin-1-yl)propyl]}carboxamidopyridine] | – | – | – | pKi alpha-1 1b [1, 3]: 5.93; pKi alpha-2 2b (α2B receptor; [4]): 5.74; pKi alpha-1 1a [2, 5]: 5.77
CC(=O)C1=C(C)NC(C)=C(C(=O)NCCCN2CCC(c3ccccc3)(c3ccccc3)CC2)C1c1ccc([N+](=O)[O-])cc1 (stereo not drawn) [Example 47, 5-Acetyl-1,4-dihydro-2,6-dimethyl-4-(4-nitrophenyl)-3-{N-[3-(4,4-diphenylpiperidin-1-yl)propyl]}carboxamidopyridine] | – | – | – | pKi alpha-1 1b [1, 3]: 6.58; pKi alpha-2 2b (α2B receptor; [4]): 6.36; pKi alpha-1 1a [2, 5]: 6.29
COC(=O)C1=C(C)NC(C)=C(C(=O)OCCCN2CCCCC2)C1c1ccc([N+](=O)[O-])cc1 (stereo not drawn) [Example 50, 1,4-Dihydro-5-methoxycarbonyl-2,6-dimethyl-4-(4-nitrophenyl)-3-[3-(piperidin-1-yl)propoxy]carbonylpyridine hydrochloride etherate] | 3020 nM | 2750 nM | 1950 nM | –

Continued, in another order:

Ki [1, 3] | Ki (α2B receptor; [4]) | Ki [2, 5] | Molecule | further results
13.5 nM | 214 nM | 66.1 nM | COC(=O)C1=C(C)NC(C)=C(C(=O)NCCCN2CCC(c3ccccc3)CC2)C1c1ccc([N+](=O)[O-])cc1 (racemic) [(±)-45, (±)-1,4-Dihydro-3-methoxycarbonyl-2,6-dimethyl-4-(4-nitrophenyl)-5-{N-[3-(4-phenylpiperidin-1-yl)propyl]}carboxamidopyridine hydrochloride hemihydrate] | –
57.5 nM | 91.2 nM | 178 nM | COC(=O)C1=C(C)NC(C)=C(C(=O)NCCCN2CCC(c3ccccc3)CC2)C1c1ccc([N+](=O)[O-])cc1 (single isomer, unassigned; (+)) [(+)-45, 1,4-Dihydro-3-methoxycarbonyl-2,6-dimethyl-4-(4-nitrophenyl)-5-{N-[3-(4-phenylpiperidin-1-yl)propyl]}carboxamidopyridine hydrochloride hemihydrate] | –
9.12 nM | 229 nM | 40.7 nM | COC(=O)C1=C(C)NC(C)=C(C(=O)NCCCN2CCC(c3ccccc3)CC2)C1c1ccc([N+](=O)[O-])cc1 (single isomer, unassigned; (-)) [(−)-45, 1,4-Dihydro-3-methoxycarbonyl-2,6-dimethyl-4-(4-nitrophenyl)-5-{N-[3-(4-phenylpiperidin-1-yl)propyl]}carboxamidopyridine hydrochloride hemihydrate] | –
64.6 nM | 22.4 nM | 145 nM | COC(=O)C1=C(C)NC(C)=C(C(=O)NCCCCN2CCC(c3ccccc3)CC2)C1c1ccc([N+](=O)[O-])cc1 (stereo not drawn) [Example 3, 1,4-Dihydro-3-methoxycarbonyl-2,6-dimethyl-4-(4-nitrophenyl)-5-{N-[4-(4-phenylpiperidin-1-yl)butyl]}carbozamidopyridine hydrochloride hydrate] | –
41.7 nM | 141 nM | 126 nM | COC(=O)C1=C(C)NC(C)=C(C(=O)NCCCN2CCC(c3ccccc3)CC2)C1c1ccc(Cl)c([N+](=O)[O-])c1 (stereo not drawn) [Example 17, 4-(4-Chloro-3-nitrophenyl)-1,4-dihydro-3-methoxycarbonyl-2,6-dimethyl-5-(N-(3-(4-phenylpiperidin-1-yl)propyl)carboxamido)pyridine] | –
53.7 nM | 234 nM | 155 nM | COC(=O)C1=C(C)NC(C)=C(C(=O)NCCCN2CCC(c3ccccc3)CC2)C1c1cccc([N+](=O)[O-])c1 (stereo not drawn) [Example 30, 1,4-Dihydro-3-methoxycarbonyl-2,6-dimethyl-4-(3-nitrophenyl)-5-(N-(3-(4-phenylpiperidin-1-yl)propyl)carboxamido)pyridine] | –
20.4 nM | 138 nM | 112 nM | COC(=O)C1=C(C)NC(C)=C(C(=O)NCCCN2CCC(c3ccccc3)CC2)C1c1ccc(C)cc1 (stereo not drawn) [Example 31, 1,4-Dihydro-3-methoxycarbonyl-2,6-dimethyl-4-(4-methylphenyl)-5-(N-(3-(4-phenylpiperidin-1-yl)propyl)carboxamido)pyridine] | –
2.63 nM | 813 nM | 9.77 nM | COC(=O)C1=C(C)NC(C)=C(C(=O)OCCCN2CCC(c3ccccc3)CC2)C1c1ccc([N+](=O)[O-])cc1 (stereo not drawn) [Example 48, 1,4-Dihydro-5-methazycarbonyl-2,6-dimethyl-4-(4-nitrophenyl)-3-[3-(4-phenylpiperidin-1-yl)propoxy]}carbonylpyridine hydrochloride hydrate] | –
